From PubChem BioAssay (NCI)
Values joined by “and” are separate entries in the source; they are usually repeats but may differ in a detail not shown here. Identical values can stand only once.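 Five compound concentrations were applied to cells in 96-well plates for 48 hours; endpoints were derived by simple linear interpolation of the resulting dose-response curve. At the GI50, growth is halved. TGI denotes the concentration required for complete inhibition of growth.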

What was measured:
Assay in all cases: DTP human tumour cell line panel, 48 h
[1] = tested on: A549 NSCLC
[2] = tested on: COLO 205 colon
[3] = tested on: DU-145 prostate
[4] = tested on: HOP-62 NSCLC
[5] = tested on: LOX IMVI melanoma
[6] = tested on: NCI-H23 lung
[7] = tested on: OVCAR-8 ovarian
[8] = tested on: SK-MEL-5 melanoma
[9] = tested on: SW-620 colon
[10] = tested on: T-47D breast

SMILES | GI50 [1] | TGI [1] | GI50 [2] | TGI [2] | GI50 [3] | TGI [3] | GI50 [4] | TGI [4] | GI50 [5] | TGI [5] | GI50 [6] | TGI [6] | GI50 [7] | TGI [7] | GI50 [8] | TGI [8] | GI50 [9] | TGI [9] | GI50 [10] | TGI [10]
O=c1ccn(C2OC(CO/N=C/c3ccc(O)c(O)c3O)C(O)C2O)c(=O)[nH]1 (centres undefined) | 54.3 µM | > 100 µM | 14.7 µM | 30.6 µM | 17.1 µM | 33.2 µM | 67.6 µM | > 100 µM | 16.1 µM | 32.2 µM | 22.6 µM | 49.6 µM | 22.3 µM | 56 µM | 19.4 µM | 33.5 µM | 19.1 µM | 35.9 µM | 21.8 µM | 50.3 µM
O=C(CNc1ccc2c(c1)C(=O)c1ccccc1C2=O)Nc1ccc2c(c1)C(=O)c1ccccc1C2=O | 1.68 µM | 3.58 µM | 1.26 µM | 2.94 µM | 1.53 µM | 2.87 µM | 1.85 µM | 3.59 µM | 0.142 µM | 0.317 µM | 0.304 µM | 1.09 µM | 0.423 µM | 2.03 µM | 0.25 µM | 0.669 µM | 0.186 µM | 0.371 µM | 0.604 µM | 2.32 µM
COc1cc2cc(Oc3ccc(NC(=O)Nc4cccc(C(F)(F)F)c4)cc3)c(C)nc2cc1OC | 1.47 µM | 6.49 µM | 1.12 µM | 2.4 µM | 2.78 µM | 15.8 µM | 2.33 µM | 8.44 µM | 1.84 µM | 6.61 µM | 1.7 µM | 7.41 µM | 1.71 µM | 6.28 µM | 1.08 µM | 2.66 µM | 2.28 µM | 11.1 µM | 1.61 µM | 6.68 µM
O=C(Nc1cc(Cl)cc(Cl)c1)c1ccc(NC2=C(Cl)C(=O)N(Cc3ccc(Cl)cc3Cl)C2=O)cc1 | > 100 µM | > 100 µM | 12.1 µM | 35.4 µM | 20.1 µM | 50.7 µM | 34.1 µM | > 100 µM | 1.5 µM | 4.19 µM | 3.71 µM | 19.2 µM | 21.6 µM | 87.2 µM | 1.16 µM | 2.65 µM | 1.38 µM | 13.1 µM | 3.12 µM | 73.9 µM
CCC(CO)Nc1nc(NCc2ccccc2O)c2ncn(C(C)C)c2n1 (centres undefined) | 4.03 µM | > 100 µM | 1.95 µM | 3.89 µM | 4.46 µM | > 100 µM | 5.62 µM | > 100 µM | 2.63 µM | > 100 µM | 2.98 µM | 15.7 µM | 4.21 µM | > 100 µM | 2.54 µM | 11.9 µM | 3.34 µM | > 100 µM | 5.07 µM | 32.8 µM
CC(=O)[C@@]1(O)CC[C@H]2[C@@H]3C[C@H](C)C4=CC(=O)CC[C@]4(C)[C@H]3[C@@H](O)C[C@@]21C | – | > 100 µM | – | > 100 µM | – | > 100 µM | – | > 100 µM | – | > 100 µM | – | > 100 µM | – | > 100 µM | – | > 100 µM | – | > 100 µM | – | > 100 µM
O=C(/C=C/c1cccnc1)NCCCCC1CCCN(C(=O)c2ccccc2)C1 (centres undefined) | 0.0752 µM | > 100 µM | 0.75 µM | > 100 µM | < 0.01 µM | > 100 µM | > 94.2 µM | > 100 µM | 5.67 µM | > 100 µM | 30.3 µM | > 100 µM | < 0.01 µM | > 100 µM | < 0.0273 µM | > 100 µM | < 0.01 µM | > 100 µM | < 0.01 µM | > 100 µM
O=C1/C(=C/c2ccccc2)CN(C(=O)c2cccnc2)C/C1=C\c1ccccc1 | 3.1 µM | 12.2 µM | 1.55 µM | 3.67 µM | 2.04 µM | 6.13 µM | 3.02 µM | 10.4 µM | 0.21 µM | 0.483 µM | 1.83 µM | 5.19 µM | 2.08 µM | 11.8 µM | 1.8 µM | 3.68 µM | 0.33 µM | 1.8 µM | 2.92 µM | 12.2 µM
Nc1ncnc2c1nc(Cl)n2C1OC2COP(=O)(O)OC2C1O (centres undefined) | – | > 300 µM | – | > 300 µM | – | > 300 µM | – | 163 µM and > 100 µM | – | > 300 µM | – | > 300 µM | – | > 300 µM | – | > 300 µM | – | > 300 µM | – | > 300 µM
Cc1cc(S(N)(=O)=O)c(S/C(CC(C)C)=N\Nc2ccc([N+](=O)[O-])cc2)cc1Cl | 9.46 µM | 27.2 µM | 6.46 µM | 20.9 µM | 14.4 µM | 28 µM | 13.5 µM | 26.4 µM | 5.81 µM | 29.2 µM | 3.74 µM | 12.6 µM | 16.9 µM | 52.8 µM | 11 µM | 23.2 µM | 8.82 µM | 29.9 µM | 3.1 µM | 8.33 µM
COc1ccc2c(=O)c3ccoc3n(CC=C(C)C)c2c1 | – | > 100 µM | – | > 100 µM | – | > 100 µM | – | > 100 µM | – | > 100 µM | – | > 100 µM | – | > 100 µM | – | > 69.3 µM | – | > 100 µM | – | > 100 µM
COc1c(OC)c(OC)c2c(c1OC)c(=O)c1ccccc1n2C | – | > 100 µM | – | > 100 µM | – | > 100 µM | – | > 100 µM | – | > 100 µM | – | > 100 µM | – | > 100 µM | – | > 100 µM | – | > 100 µM | – | > 100 µM
COc1cc2c3c(n(CCCN)c(=O)c2cc1OC)-c1cc2c(cc1/C3=C\CCN)OCO2 | 3.19 µM | > 30.3 µM | 4.34 µM | 33.5 µM | 2.52 µM | 12.7 µM | 5.95 µM | 36.7 µM | 1.7 µM | – | 5.35 µM | 24.1 µM | 1.99 µM | 13.1 µM | 4.55 µM | 11.8 µM | 3.56 µM | > 66.2 µM | 19.4 µM | > 100 µM
COc1ccccc1CCN=C1NC(=O)/C(=C/c2ccc3ncccc3c2)S1 | 5.93 µM | > 25 µM | 2.86 µM | > 19.6 µM | 7.97 µM | > 25 µM | 8.17 µM | > 25 µM | 3.15 µM | 18.2 µM | 8.56 µM | > 25 µM | 6.75 µM | > 25 µM | 5.92 µM | 17.6 µM | 1.32 µM | > 25 µM | 6.76 µM | > 23.1 µM
CC(C)(O)CS(=O)(=O)Nc1ccc2c(c1)CCN(C(=O)COc1cccnc1)C2 | > 100 µM | > 100 µM | 0.141 µM | > 100 µM | 0.618 µM | > 100 µM | 99.4 µM | > 100 µM | > 100 µM | > 100 µM | > 100 µM | > 100 µM | 0.0177 µM | > 100 µM | > 100 µM | > 100 µM | 0.0495 µM | > 100 µM | > 35.2 µM | > 100 µM
CC1(C)N=C(N)N=C(N)N1c1ccc(OCCCCOc2ccc(S(=O)(=O)F)cc2)c(Cl)c1 | 0.0826 µM | 14.8 µM | 0.137 µM | 15.5 µM | 0.194 µM | 16 µM | 0.269 µM | 12.9 µM | 0.0761 µM | 14.3 µM | 0.115 µM | 19.5 µM | 0.348 µM | 17.4 µM | 0.346 µM | 8.5 µM | 0.0379 µM | 14 µM | 1.14 µM | 13.2 µM
Cn1c(/C=C(\C#N)c2ccccc2)nc2c(N3CCOCC3)nc(Cl)nc21 | 1.53 µM | 4.03 µM | 1.34 µM | 2.93 µM | 1.28 µM | 2.56 µM | 1.58 µM | 3.51 µM | 0.324 µM | 1.25 µM | 1.63 µM | 3.2 µM | 1.04 µM | 3.39 µM | 1.64 µM | 3.01 µM | 0.413 µM | 1.51 µM | 1.23 µM | 3.75 µM
O=C1CCCCCCCC/C=C\CC(c2ccco2)O1 (centres undefined) | 46 µM | > 100 µM | 31.6 µM | > 100 µM | 44.8 µM | > 100 µM | 15.6 µM | 62.3 µM | 32.3 µM | 51.6 µM | 35.8 µM | > 100 µM | 33.4 µM | > 100 µM | 18.9 µM | 36.9 µM | 41.5 µM | > 100 µM | 13.1 µM | 57 µM
Cc1cc2nc3c4cc(N)ccc4n(CCN(C)C)c3nc2cc1C | 0.45 µM | 6.14 µM | 0.408 µM | 5.27 µM | 1.11 µM | 11.7 µM | 0.687 µM | 14.7 µM | 0.461 µM | 3.27 µM | 0.981 µM | 3.73 µM | 0.584 µM | 12.8 µM | 1.48 µM | 2.88 µM | 0.381 µM | 10.9 µM | 1.71 µM | 12.3 µM
C=C1C(=O)O[C@H]2[C@H]1CC/C(Cn1cc(-c3cc(C(F)(F)F)cc(C(F)(F)F)c3)nn1)=C\CC[C@@]1(C)O[C@@H]21 | 1.36 µM | 3.01 µM | 0.141 µM | 0.364 µM | 0.726 µM | 2.02 µM | 1.56 µM | 3.31 µM | 0.156 µM | 0.298 µM | 1.12 µM | 2.65 µM | 0.88 µM | 2.2 µM | 1.47 µM | 2.78 µM | 0.19 µM | 0.399 µM | 0.33 µM | 1.62 µM
